The source of these data is PMC9664070, “The anticonvulsant phytocannabinoids CBGVA and CBDVA inhibit recombinant T-type channels” (Frontiers in Pharmacology, 2022).

Structures are written as SMILES. Where “and” joins values, the source holds several entries; their conditions need not be identical. Equal entries are not always repeated.

For orientation: IC50 means the midpoint of a concentration-inhibition curve.

Data set [1] has as its system hyperthermia-induced seizures. On the set-up: method as in earlier work. Particulars: Scn1a+/- mice, ref Anderson et al., 2019, 2021a, 2021b; cited from earlier work.
For data set [2], the target named is T1, Cav3.2 (Homo sapiens, UniProt O95180).
T1 construct: expressed in transfected cells; host or cells: HEK293 Flp-In T-REx
Kind of data set: FLIPR calcium 5 assay, inhibition of 10 mM Ca-induced fluorescence. Format: cell-based. The following applies: for % Inhibition of Fluorescence Cav3.2: 10 µM compound, 10 mM Ca-induced fluorescence, HEK293 cells, mean ± SEM. As for the experimental part:
(§1) Calcium 5 dye (Molecular Devices, United States ) was used to investigate compound activities at T-type calcium channels using Flexstation III. HEK293 cells overexpressing Cav3.1, Cav 3.2, and Cav 3.3 cells were resuspended in Leibovitz’s L-15 media containing 1% FBS, 1% P/S and 15 mM glucose. 90 µl of the resuspended cells (120,000 cells/well) were plated in a black-walled, 96-well microplate (Corning, NY, United States ) and incubated overnight in humidified air at 37°C. Channel expression was induced with tetracycline (2 μg/ml, Sigma-Aldrich) at plating. On the day of the assay, 90 µl of HBSS containing 5% Calcium dye (bulk kit) and 2.5 mM probenecid (Invitrogen, United States ) was added to each well and incubated for 1 h at 37°C. Change in fluorescence was measured in a FlexStation III plate reader every 2 s (ʎexcitation = 485 nm, ʎemission = 525 nm) for the duration of the experiment at 37°C. After 2 min baseline recording, drugs (20 µL) were added and read for 5 min, followed by 10 mM CaCl2 (20 µl) and read for a further 3 min.
(§2) Unless otherwise stated, five independent experiments were performed for each condition, with each experiment conducted in duplicate. For the calcium assay, change in fluorescence by 10 mM Ca in the presence of drugs was normalised to change in fluorescence caused by 10 mM Ca in the presence of vehicle only to allow for comparison. In the Alphascreen assay, results were normalised to EC80 of ML-186 after subtraction of basal ERK phosphorylation (presence of a vehicle and 0.2% DMSO) to allow for easy comparison between phytocannabinoid activities. We fitted all concentration-response curves to a 4-parameter sigmoidal inhibitory response curve in GraphPad Prism (Version 6 GraphPad Software Inc., CA, United States) to derive IC50 and Emax values. All statistical analyses were conducted with GraphPad Prism. Two-tailed, unpaired t-tests were used to compare two data points and one-way ANOVA for more than two data points with Tukey post-hoc analysis. p-values < 0.05 were considered statistically significant.
(§3) Our investigation of T-type channels began with a single-point screen, as described by [Bladen et al. (2021)]. We screened the inhibitory effect of 10 µM phytocannabinoids on the change in fluorescence elicited by the addition of 10 mM Ca^2+ in cells expressing Cav3.1, Cav3.2 or Cav3.3 channels ([Xie et al., 2007]; [Bladen et al., 2021]).

Another data set addresses T2, Cav3.3 (Homo sapiens, UniProt Q9P0X4).
T2 construct: expressed in transfected cells; host or cells: HEK293 Flp-In T-REx
The data set is described as above. Format: cell-based. Particulars: 10 µM compound, HEK293 cells, mean ± SEM. As for the experimental part:
as §1, §2, §3

The target of data set [3] is T3, Cav3.1 (Homo sapiens, UniProt O43497).
T3 construct: expressed in transfected cells; host or cells: HEK293 Flp-In T-REx
The description is as above. The format is cell-based. The following applies: for IC50: FLIPR concentration-response, HEK293 Cav3.1 cells, read-out: IC50, inhibition of change in fluorescence, Cav3.1; for % Inhibition of Fluorescence Cav3.1: 10 µM compound, 10 mM Ca-induced fluorescence, HEK293 cells, mean ± SEM. How it is done:
as §1, §2, §3

The target in the next data set is T4, GPR55 (Homo sapiens, UniProt Q9Y2T6).
T4 construct: expressed in transfected cells; host or cells: HEK 293
Kind of data set: Alphascreen ERK phosphorylation assay, antagonism of ML-186-induced ERK phosphorylation. The following applies: in the presence of EC80 of ML-186 (0.45 µM), HEK 293 GPR55 cells. The format is cell-based. As for the experimental part: as §2

Data set [4] has as its target T3, Cav3.1. Kind of data set: Whole-cell voltage-clamp electrophysiology in HEK293 Flp-In T-REx cells. Format: cell-based. As for the experimental part: All whole-cell voltage-clamp recordings from HEK293 Flp-In T-REx cells stably transfected with human Cav3.1, Cav 3.2 and Cav 3.3 were performed at room temperature. At least 24 h prior to experiments, cells were detached from flasks using trypsin/EDTA and plated into 10 cm sterile tissue culture dishes containing 10 ml of supplemented DMEM and 10–15 glass coverslips (12 mm diameter, ProScitech, QLD, Australia). Culture dishes were then kept overnight in same conditions as flasks to allow cells to adhere to coverslips. They were then transferred to a 30°C/5% CO2 incubator to inhibit cell proliferation until ready to be used for electrophysiology experiments. At this stage, channel expression was induced with tetracycline (2 μg/ml, Sigma-Aldrich) 8–24 h prior to recording cells.
External recording solutions contained (in mM): 114 CsCl, 5 BaCl2, 1 MgCl2, 10 HEPES, 10 glucose, adjusted to pH 7.4 with CsOH. The internal patch pipette solution contained (in mM): 126.5 CsMeSO4, 2 MgCl2, 11 EGTA, 10 HEPES adjusted to pH 7.3 with CsOH. Internal solution was supplemented with 0.6 mM GTP and 2 mM ATP and mixed thoroughly just before use. Liquid junction potentials for the above solutions were calculated before experiments using pClamp 10 software and corrected during experiments. Compounds were prepared daily from 30 mM DMSO stocks and diluted into an external solution just before use. Compounds were then applied rapidly and locally to the cells using a custom-built gravity-driven micro-perfusion system ([Feng et al., 2003]). […] Currents were elicited from a holding potential of -100 mV and were measured by conventional whole-cell patch clamp techniques using an Axopatch 200B amplifier in combination with Clampex 9.2 software. (Molecular Devices, Sunnyvale, CA). After establishing whole cell configuration, cellular capacitance was minimised using the amplifier’s built-in analogue compensation. Series resistance was kept to <10 MΩ and was compensated to at least 85% in all experiments. All data were digitised at 10 kHz with a Digidata 1,320 interface (Molecular Devices) and filtered at 1 kHz (8-pole Bessel filter). Raw and online leak-subtracted data were both collected simultaneously, P/N4 leak subtraction was performed using opposite polarity and after the protocol sweep.
For tonic inhibition of T-type currents, membrane potential was stepped from −100 mV to −30 mV for 200 ms and then allowed to recover for 12 s (1 sweep). A minimum of 10 sweeps were collected under vehicle control external perfusion to allow for control peak current to equilibrate. The drug was then continuously perfused, and sweeps were recorded until no further inhibition was seen (minimum of 3 sweeps with the same amplitude). In current-voltage relation studies, the membrane potential was held at −100 mV and cells were depolarised from −70 to 50 mV in 10 mV increments. For steady-state inactivation studies, a 3.6 s conditioning pre-pulse of various magnitudes (initial holding at −110 mV) was followed by a depolarising pulse to −30 mV. Individual sweeps were separated by 12 s to permit recovery from inactivation between conditioning pulses. The duration of the test pulse was typically 20 ms, and the current amplitude obtained from each test pulse was normalised to that observed at the holding potential of −100 mV.
The effect of CBGVA and CBDVA (5 µM each) on slow inactivation was tested using a 2-pulse voltage protocol as described in Bladen et al., (2021). Briefly, cells expressing Cav3.1 were initially depolarised with a 200 ms test pulse from -120 mV to −30 mV to generate peak current (P1) and followed by a 10 s pre-conditioning pulse to −80 mV to reverse fast inactivation. Cells were further depolarised with another 200 ms test pulse from −120 to −30 mV (P2) (Figure 2 inset).
THC and CBD cause substantial frequency-dependent inhibition of Cav3.2 and Nav1.8 channels, respectively ([Ross et al., 2008]; [Bladen et al., 2021]; [Zhang and Bean, 2021]). […]

Data set [5] is described as follows: Plasma and brain exposure at anticonvulsant doses in mice (literature). Format: in vivo. Particulars: from peak plasma concentration and brain-plasma ratio.
The conditions of data set [6]: ref Anderson et al., cited from earlier work.
For data set [7], the system named is Cav3.1. Details: method as in Ross et al., 2008. The following applies: ref Ross et al., 2008; read-out: IC50, inhibition of peak Cav3.1 currents; cited from earlier work.
Data set [8] deals with Cav3.2. Details: method as in Ross et al., 2008. Particulars: ref Ross et al., 2008; read-out: IC50, inhibition of peak Cav3.2 currents; cited from earlier work.

T3 sequence (O43497 whole entry): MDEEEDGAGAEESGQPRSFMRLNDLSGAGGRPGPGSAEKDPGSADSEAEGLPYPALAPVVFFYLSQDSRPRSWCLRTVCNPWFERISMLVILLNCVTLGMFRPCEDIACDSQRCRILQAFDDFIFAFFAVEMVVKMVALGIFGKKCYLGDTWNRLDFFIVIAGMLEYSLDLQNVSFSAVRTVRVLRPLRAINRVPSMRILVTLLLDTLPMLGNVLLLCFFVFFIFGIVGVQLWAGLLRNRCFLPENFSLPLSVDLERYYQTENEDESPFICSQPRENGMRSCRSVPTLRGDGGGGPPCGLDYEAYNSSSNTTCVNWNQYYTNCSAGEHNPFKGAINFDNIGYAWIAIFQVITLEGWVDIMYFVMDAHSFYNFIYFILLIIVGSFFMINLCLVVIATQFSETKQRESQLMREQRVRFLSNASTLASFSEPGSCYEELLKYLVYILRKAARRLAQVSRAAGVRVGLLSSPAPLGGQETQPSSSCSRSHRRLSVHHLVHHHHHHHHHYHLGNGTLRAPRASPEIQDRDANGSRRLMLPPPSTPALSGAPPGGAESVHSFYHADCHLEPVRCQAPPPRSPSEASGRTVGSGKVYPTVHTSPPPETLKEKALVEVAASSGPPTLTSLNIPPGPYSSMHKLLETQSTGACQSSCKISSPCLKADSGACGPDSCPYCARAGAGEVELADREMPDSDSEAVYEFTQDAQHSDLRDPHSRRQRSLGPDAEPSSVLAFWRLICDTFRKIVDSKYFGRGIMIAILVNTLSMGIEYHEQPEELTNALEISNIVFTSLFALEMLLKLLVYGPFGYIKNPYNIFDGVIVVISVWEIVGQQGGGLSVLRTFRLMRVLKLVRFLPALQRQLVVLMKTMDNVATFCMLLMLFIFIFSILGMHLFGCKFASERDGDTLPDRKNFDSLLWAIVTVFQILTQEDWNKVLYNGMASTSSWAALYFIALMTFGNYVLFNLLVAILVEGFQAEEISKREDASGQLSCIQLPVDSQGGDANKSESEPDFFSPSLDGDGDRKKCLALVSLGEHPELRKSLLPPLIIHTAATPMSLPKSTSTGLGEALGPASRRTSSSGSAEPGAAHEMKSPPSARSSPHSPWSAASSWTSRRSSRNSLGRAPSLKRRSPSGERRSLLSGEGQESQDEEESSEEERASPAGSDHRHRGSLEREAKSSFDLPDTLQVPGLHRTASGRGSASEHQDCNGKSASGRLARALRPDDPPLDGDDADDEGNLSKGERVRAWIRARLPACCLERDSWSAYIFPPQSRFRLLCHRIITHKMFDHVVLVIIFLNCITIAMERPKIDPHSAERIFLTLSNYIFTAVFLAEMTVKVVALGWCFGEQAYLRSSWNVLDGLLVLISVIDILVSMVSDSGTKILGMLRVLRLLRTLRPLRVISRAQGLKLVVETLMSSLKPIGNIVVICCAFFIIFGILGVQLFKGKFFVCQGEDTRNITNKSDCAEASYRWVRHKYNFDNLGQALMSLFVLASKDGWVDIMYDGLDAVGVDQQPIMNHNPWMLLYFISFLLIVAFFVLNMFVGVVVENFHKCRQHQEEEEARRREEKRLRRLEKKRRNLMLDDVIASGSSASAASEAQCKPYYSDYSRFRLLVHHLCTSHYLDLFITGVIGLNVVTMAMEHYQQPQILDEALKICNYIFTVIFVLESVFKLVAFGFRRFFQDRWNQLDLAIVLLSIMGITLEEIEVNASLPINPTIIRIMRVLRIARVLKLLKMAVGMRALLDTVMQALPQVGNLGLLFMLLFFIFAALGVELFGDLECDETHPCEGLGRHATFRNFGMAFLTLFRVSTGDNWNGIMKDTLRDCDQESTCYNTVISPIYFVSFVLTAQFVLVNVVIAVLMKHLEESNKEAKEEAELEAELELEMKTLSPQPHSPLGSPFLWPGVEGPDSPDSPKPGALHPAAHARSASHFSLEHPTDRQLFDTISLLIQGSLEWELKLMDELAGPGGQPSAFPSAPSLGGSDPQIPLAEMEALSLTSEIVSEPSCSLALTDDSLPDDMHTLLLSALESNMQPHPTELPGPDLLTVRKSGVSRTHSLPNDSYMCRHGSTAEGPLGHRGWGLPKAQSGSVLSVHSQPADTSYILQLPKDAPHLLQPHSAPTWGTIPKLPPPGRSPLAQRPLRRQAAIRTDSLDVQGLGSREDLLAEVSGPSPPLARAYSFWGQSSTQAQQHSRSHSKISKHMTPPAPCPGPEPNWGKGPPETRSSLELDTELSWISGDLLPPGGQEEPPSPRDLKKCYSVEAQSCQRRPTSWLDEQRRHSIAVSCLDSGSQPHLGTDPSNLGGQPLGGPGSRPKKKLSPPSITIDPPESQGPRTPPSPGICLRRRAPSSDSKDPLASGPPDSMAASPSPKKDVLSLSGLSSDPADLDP
T1 sequence (O95180 whole entry): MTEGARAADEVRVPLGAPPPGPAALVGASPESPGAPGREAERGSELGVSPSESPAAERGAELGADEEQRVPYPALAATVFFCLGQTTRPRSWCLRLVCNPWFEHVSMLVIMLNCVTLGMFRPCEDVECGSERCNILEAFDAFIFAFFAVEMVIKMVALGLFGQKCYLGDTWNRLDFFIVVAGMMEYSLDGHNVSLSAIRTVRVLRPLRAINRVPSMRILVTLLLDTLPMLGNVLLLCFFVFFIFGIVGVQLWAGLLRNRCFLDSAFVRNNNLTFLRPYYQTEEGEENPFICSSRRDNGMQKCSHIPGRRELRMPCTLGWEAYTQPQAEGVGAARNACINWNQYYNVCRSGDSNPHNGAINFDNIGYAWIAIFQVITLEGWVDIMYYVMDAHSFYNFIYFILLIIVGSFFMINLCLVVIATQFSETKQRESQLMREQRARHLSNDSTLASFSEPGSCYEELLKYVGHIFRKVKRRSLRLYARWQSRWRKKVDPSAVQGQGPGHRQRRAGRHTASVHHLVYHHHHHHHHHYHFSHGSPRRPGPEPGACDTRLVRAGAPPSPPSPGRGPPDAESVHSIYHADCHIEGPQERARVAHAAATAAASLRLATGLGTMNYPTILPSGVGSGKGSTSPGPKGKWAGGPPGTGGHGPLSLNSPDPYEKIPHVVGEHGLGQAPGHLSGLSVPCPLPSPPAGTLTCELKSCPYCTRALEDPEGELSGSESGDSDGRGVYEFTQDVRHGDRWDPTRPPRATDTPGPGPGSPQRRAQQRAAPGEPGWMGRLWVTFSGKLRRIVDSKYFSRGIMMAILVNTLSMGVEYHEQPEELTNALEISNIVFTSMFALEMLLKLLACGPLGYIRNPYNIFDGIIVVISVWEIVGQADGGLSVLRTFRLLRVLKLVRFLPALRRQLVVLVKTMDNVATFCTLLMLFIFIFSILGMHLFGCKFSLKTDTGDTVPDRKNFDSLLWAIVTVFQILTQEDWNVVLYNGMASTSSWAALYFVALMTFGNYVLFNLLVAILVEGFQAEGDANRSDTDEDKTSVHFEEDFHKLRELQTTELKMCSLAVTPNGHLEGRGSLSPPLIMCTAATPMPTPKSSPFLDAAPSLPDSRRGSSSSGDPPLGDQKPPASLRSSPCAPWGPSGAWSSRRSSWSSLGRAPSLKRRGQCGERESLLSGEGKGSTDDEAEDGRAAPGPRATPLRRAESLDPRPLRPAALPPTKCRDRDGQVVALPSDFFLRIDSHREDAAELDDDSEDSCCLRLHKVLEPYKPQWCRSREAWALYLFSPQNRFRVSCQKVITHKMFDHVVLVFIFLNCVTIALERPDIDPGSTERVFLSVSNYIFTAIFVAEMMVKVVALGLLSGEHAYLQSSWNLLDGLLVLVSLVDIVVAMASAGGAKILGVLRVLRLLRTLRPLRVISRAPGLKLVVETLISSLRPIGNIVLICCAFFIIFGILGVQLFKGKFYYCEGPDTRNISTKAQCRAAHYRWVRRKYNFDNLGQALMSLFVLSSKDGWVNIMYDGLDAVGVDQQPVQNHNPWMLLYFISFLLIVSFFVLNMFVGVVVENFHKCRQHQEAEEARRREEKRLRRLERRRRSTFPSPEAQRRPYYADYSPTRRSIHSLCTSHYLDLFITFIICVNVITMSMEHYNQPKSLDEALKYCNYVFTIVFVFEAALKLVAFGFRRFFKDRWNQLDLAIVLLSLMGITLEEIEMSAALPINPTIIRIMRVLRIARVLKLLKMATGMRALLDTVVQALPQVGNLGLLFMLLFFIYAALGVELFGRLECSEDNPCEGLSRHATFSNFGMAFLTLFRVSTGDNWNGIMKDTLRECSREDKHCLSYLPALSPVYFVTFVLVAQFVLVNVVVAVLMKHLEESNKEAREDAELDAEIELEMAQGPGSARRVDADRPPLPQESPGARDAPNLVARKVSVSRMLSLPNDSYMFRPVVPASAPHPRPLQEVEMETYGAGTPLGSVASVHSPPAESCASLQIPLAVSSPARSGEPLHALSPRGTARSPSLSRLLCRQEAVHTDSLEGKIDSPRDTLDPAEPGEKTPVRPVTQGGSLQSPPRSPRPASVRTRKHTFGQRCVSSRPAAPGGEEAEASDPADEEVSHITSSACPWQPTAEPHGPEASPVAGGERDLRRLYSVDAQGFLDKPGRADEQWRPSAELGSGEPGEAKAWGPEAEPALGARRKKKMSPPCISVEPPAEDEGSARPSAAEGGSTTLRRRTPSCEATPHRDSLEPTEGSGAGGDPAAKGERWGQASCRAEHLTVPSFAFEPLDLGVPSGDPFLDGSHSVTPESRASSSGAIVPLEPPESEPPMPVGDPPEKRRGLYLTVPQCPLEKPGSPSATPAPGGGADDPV
T4 sequence (Q9Y2T6 whole entry, species assumed): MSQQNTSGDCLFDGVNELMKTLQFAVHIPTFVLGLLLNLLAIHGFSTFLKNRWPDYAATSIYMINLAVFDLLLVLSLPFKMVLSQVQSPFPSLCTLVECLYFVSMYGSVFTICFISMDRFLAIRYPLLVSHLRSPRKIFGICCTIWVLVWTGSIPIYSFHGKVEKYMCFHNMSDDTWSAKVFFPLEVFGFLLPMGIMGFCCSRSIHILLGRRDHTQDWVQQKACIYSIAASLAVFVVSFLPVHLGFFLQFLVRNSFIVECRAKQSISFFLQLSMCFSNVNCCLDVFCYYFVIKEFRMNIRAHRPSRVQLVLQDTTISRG

Regarding `CCCCCc1cc(O)c(C/C=C(\C)CCC=C(C)C)c(O)c1C(=O)O` [CBGA, cannabigerolic acid], the “effect against hyperthermia-induced seizures” value in [1] is “anticonvulsant”.
With `CCCc1cc(O)c2c(c1)OC(C)(CCC=C(C)C)C=C2` (stereo not shown) [CBCV], the “% Inhibition of Fluorescence Cav3.2” value on Cav3.2 [2] was -37 ± 21%. Besides, the “effect on influx of Ca2+ ions in cells expressing Cav3.2” value on Cav3.2 [2] (10 µM, FLIPR) was “appeared to increase the influx of Ca^2+ ions”. In addition, the “% Inhibition of Fluorescence Cav3.3” value at Cav3.3 was 1 ± 1%.
Take `CCCc1cc(O)c(C/C=C(\C)CCC=C(C)C)c(O)c1C(=O)O` [CBGVA, cannabigerovarinic acid]: the IC50 was 6 µM on Cav3.1 [3]; 2000 nM at Cav3.2 [2] (FLIPR concentration-response, HEK293 Cav3.2 cells, read-out: IC50, inhibition of change in fluorescence, Cav3.2); 8 µM on GPR55; 3000 nM on Cav3.1 [4] (patch clamp, step −100 mV to −30 mV every 12 s, read-out: IC50, tonic inhibition of Cav3.1 current amplitude). The “% Inhibition of Fluorescence Cav3.3” value at Cav3.3 was 35 ± 11%. Also, the “V0.5 of voltage dependence of Cav3.1 activation” value at Cav3.1 [4] (5 µM compound) is −49.1 ± 0.5 mV. Also, the “half-inactivation (V0.5), steady-state inactivation of Cav3.1” value on Cav3.1 [4] (5 µM compound) is −82.1 ± 0.8 mV. Also, the “Cav3.1 relative current at 50th action potential, % of first” value on Cav3.1 [4] (5 µM, 0.4 Hz stimulation) is 73 ± 3%; at Cav3.1 [4] (5 µM, 0.8 Hz stimulation), 88 ± 1%; on Cav3.1 [4] (5 µM, 2.0 Hz stimulation) it was 77 ± 1%. For the same compound, at Cav3.1 [4] (5 µM, 2-pulse voltage protocol, after 10 s pre-conditioning pulse to −80 mV), the “inhibition of Cav3.1 peak current, second test pulse (P2), slow inactivated state” value worked out at 72 ± 3%. Moreover, the “inhibition of Cav3.1 peak current, first test pulse (P1)” value at Cav3.1 [4] (5 µM, 2-pulse voltage protocol, before slow inactivation) was 61 ± 3%. Further, in data set [5], the expected brain concentration was determined as 48 µM. The Peak plasma concentration entry in data set [6] (anticonvulsant doses in mice, 2021b) is “approximately 1,200 µM”. Further, the brain-plasma ratio in data set [6] (2019) is 4%. For the same compound, in [1], the “effect against hyperthermia-induced seizures” value is “anticonvulsant”.
Regarding `CC(C)[C@H]1c2ccc(F)cc2CC[C@@]1(CCN(C)CCCc1nc2ccccc2[nH]1)OC(=O)C1CC1` [NNC550396, reference compound], on Cav3.1 [3], the “% Inhibition of Fluorescence Cav3.1” value amounted to 82 ± 8% and the IC50 came to 0.73 µM. For the same compound, at Cav3.3, the “% Inhibition of Fluorescence Cav3.3” value worked out at 89 ± 2%.
In the case of `C=C(C)[C@@H]1CCC(C)=C[C@H]1c1c(O)cc(CCCCC)cc1O` [CBD, cannabidiol], the IC50 with Cav3.1 [7] and in the data set on Cav3.2 [8] was roughly 1000 nM throughout.
With `CCCCCc1cc2c(c(O)c1C(=O)O)C=CC(C)(CCC=C(C)C)O2` (stereo not shown) [CBCA, cannabichromenic acid], the “% Inhibition of Fluorescence Cav3.1” value on Cav3.1 [3] is recorded as 59 ± 9%. In addition, the “% Inhibition of Fluorescence Cav3.3” value at Cav3.3 was determined as 11 ± 10%. Moreover, the “effect against hyperthermia-induced seizures” value in data set [1] is reported as “anticonvulsant”.
With `CCCc1cc2c(c(O)c1C(=O)O)C=CC(C)(CCC=C(C)C)O2` (stereo not shown) [CBCVA, cannabichrovarinic acid], on Cav3.1 [3], the “% Inhibition of Fluorescence Cav3.1” value stood at 51 ± 8%. The “% Inhibition of Fluorescence Cav3.2” value at Cav3.2 [2] is reported as 62 ± 8%. Moreover, the “% Inhibition of Fluorescence Cav3.3” value on Cav3.3 is reported as 34 ± 12%. Besides, in [1], the “effect against hyperthermia-induced seizures” value is “anticonvulsant”.
`CCCc1cc(O)c(C/C=C(\C)CCC=C(C)C)c(O)c1` [CBGV]: at Cav3.1 [3], the “% Inhibition of Fluorescence Cav3.1” value was < 80% and 51 ± 14%. For the same compound, the “% Inhibition of Fluorescence Cav3.3” value at Cav3.3 is 6 ± 3%.
